Laboratory results reported in patent publication US20080051429A1, “USE OF 4-AMINO-PIPERIDINES FOR TREATING SLEEP DISORDERS” (priority 2006, published 2008).
Counter-ions that a name gives are not always drawn. Like-named read-outs stand apart in the source and are kept apart here.

Target: T1, 5-HT2A receptor (Homo sapiens, UniProt P28223)
T1 construct: expressed in transfected cells; host or cells: NIH3T3 cells, pSI expression vector
Assay: R-SAT functional receptor assay
Format: cell-based
Settings: for Emax: 120 h
Procedure: The functional receptor assay, Receptor Selection and Amplification Technology (R-SAT), was used (with minor modifications from that previously described U.S. Pat. No. 5,707,798) to screen compounds for efficacy at the 5-HT2A receptor. Briefly, NIH3T3 cells were grown in 96 well tissue culture plates to 70-80% confluence. Cells were transfected for 12-16 hours with plasmid DNAs using superfect (Qiagen Inc.) as per manufacture's protocols. R-SAT's were generally performed with 50 ng/well of receptor and 20 ng/well of Beta-galactosidase plasmid DNA. All receptor and G-protein constructs used were in the pSI mammalian expression vector (Promega Inc) as described in U.S. Pat. No. 5,707,798. The 5HT2A receptor gene was amplified by nested PCR from brain cDNA using the oligodeoxynucleotides based on the published sequence (see Saltzman et. al. Biochem. Biophys. Res. Comm. 181:1469-78 (1991)). Large-scale transfections, cells were transfected for 12-16 hours, then trypsinized and frozen in DMSO. Frozen cells were later thawed, plated at 10,000-40,000 cells per well of a 96 well plate that contained drug. With both methods, cells were then grown in a humidified atmosphere with 5% ambient CO2 for five days. Media was then removed from the plates and marker gene activity was measured by the addition of the beta-galactosidase substrate ONPG (in PBS with 5% NP-40). The resulting colorimetric reaction was measured in a spectrophotometric plate reader (Titertek Inc.)at […]. All data were analyzed using the computer program XLFit (IDBSm). Efficacy is the percent maximal repression compared to repression by a control compound (ritanserin in the case of 5HT2A). pIC50 is the negative of the log(IC50), where IC50 is the calculated concentration in Molar that produces 50% maximal repression.
Briefly, the 5-HT2A receptor, and the alpha subunit of the guanine nucleotide binding protein Gq were transiently transfected into NIH3T3 cells and assayed using the functional receptor assay, Receptor Selection and Amplification Technology (R-SAT) essentially as disclosed in U.S. Pat. No. 5,707,798. Each compound was screened at seven serially diluted concentrations in triplicate. Data were analyzed using least squares fit analysis with GraphPad Prism (San Diego, Calif.), and are reported normalized to percent response.
R-SAT assays (as described in Example 42) were carried out with cells transfected with receptors (listed below) to determine the receptor selectivity profile for compound 26HCH16D. 5HT2A inverse agonist data (IC50 nM; % efficacy) were derived from detailed dose response curves (7 points in triplicate).
(§1) The functional receptor assay, Receptor Selection and Amplification Technology (R-SAT), was used (with minor modifications from that previously described U.S. Pat. No. 5,707,798) to screen compounds for efficacy at the 5-HT2A receptor. The RSAT assay was conducted as described herein.
as §1, with “5,707,798, which is incorporated herein by reference in its entirety)” for “5,707,798)”

[1] = compared to ritanserin, read-out: 5HT2A % inhibition
[2] = Table 6, read-out: 5HT2A pIC50 (converted)
[3] = Table 5, read-out: 5HT2A pIC50 (converted)

T1 sequence (P28223 whole entry): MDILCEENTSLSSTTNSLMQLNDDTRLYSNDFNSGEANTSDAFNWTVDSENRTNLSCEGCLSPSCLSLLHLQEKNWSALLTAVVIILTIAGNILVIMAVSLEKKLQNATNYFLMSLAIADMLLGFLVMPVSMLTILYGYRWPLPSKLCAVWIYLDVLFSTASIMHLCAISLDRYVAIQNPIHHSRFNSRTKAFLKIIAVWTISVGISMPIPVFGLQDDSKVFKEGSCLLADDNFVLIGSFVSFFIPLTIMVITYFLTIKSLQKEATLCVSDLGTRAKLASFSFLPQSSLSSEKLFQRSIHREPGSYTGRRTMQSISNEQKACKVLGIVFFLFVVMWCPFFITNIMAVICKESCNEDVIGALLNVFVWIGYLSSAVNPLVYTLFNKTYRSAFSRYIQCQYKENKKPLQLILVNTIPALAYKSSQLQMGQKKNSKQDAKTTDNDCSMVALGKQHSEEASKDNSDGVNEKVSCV

Compound	Emax [1] [%]	IC50 [2] [nM]	IC50 [3] [nM]	Emax (read-out: 5HT2A % INH) [%]	further results
CN1CCC2(CC1)OC(=O)N(Cc1ccc(OCC3CC3)cc1)C2Cc1ccc(F)cc1 (stereo not shown) [Example 69NLS52, 3-(4-Cyclopropylmethoxybenzyl)-4-(4-fluorobenzyl)-8-methyl-1-oxa-3,8-diaza-spiro[4.5]decan-2-one, hydrochloride]	87	0.251	–	–	–
CC(C)COc1ccc(CN2C(=O)OC3(CCN(CCC4OCCO4)CC3)C2Cc2ccc(F)cc2)cc1 (stereo not shown) [Example 69NLS79-II, 8-(2-[1,3]Dioxolan-2-yl-ethyl)-4-(4-fluorobenzyl)-3-(4-isobutoxybenzyl)-1-oxa-3,8-diaza-spiro[4.5]decan-2-one, hydrochloride]	101	7.94	–	–	–
CC(C)COc1ccc(CN2C(=O)OC3(CCNCC3)C2Cc2ccc(F)cc2)cc1 (stereo not shown) [Example 69NLS81, 4-(4-Fluorobenzyl)-3-(4-isobutoxybenzyl)-1-oxa-3,8-diaza-spiro[4.5]decan-2-one, hydrochloride]	85	5.01	–	–	–
CC(C)COc1ccc(CN2C(=O)OC3(CCN(CCCN4CCOCC4)CC3)C2Cc2ccc(F)cc2)cc1 (stereo not shown) [Example 69NLS83, 4-(4-Fluorobenzyl)-3-(4-isobutoxybenzyl)-8-(3-morpholin-4-yl-propyl)-1-oxa-3,8-diaza-spiro[4.5]decan-2-one, dihydrochloride]	85	10	–	–	–
CC(C)COc1ccc(CN2C(=O)OC3(CCN(C(C)C)CC3)C2Cc2ccc(F)cc2)cc1 (stereo not shown) [Example 69NLS85, 4-(4-Fluorobenzyl)-3-(4-isobutoxybenzyl)-8-isopropyl-1-oxa-3,8-diaza-spiro[4.5]decan-2-one, hydrochloride]	95	0.794	–	–	–
CC(C)COc1ccc(CC(=O)N(Cc2ccc(F)cc2)C2CCN(CCCN3CCCC3=O)CC2)cc1 [Example 098AF76-65, N-(4-Fluorobenzyl)-2-(4-isobutoxyphenyl)-N-{1-[3-(2-oxo-pyrrolidin-1-yl)propyl]piperidin-4-yl}acetamide, hydrochloride]	–	–	0.794	–	Emax (read-out: 5HT2A % INH, compared to ritanserin): 100%
CC(C)COc1ccc(CC(=O)N(Cc2ccc(F)cc2)C2CCN(CCCN3CC(C)CC(C)C3)CC2)cc1 (stereo not shown) [Example 103NLS45-B, N-{1-[3-(3,5-Dimethylpiperidin-1-yl)propyl]piperidin-4-yl}-N-(4-fluorobenzyl)-2-(4-isobutoxyphenyl)acetamide, dihydrochloride]	–	–	25.1	84	–
CC(C)COc1ccc(CC(=O)N(Cc2ccc(F)cc2)C2CCN(CCCN3CC(C)OC(C)C3)CC2)cc1 (stereo not shown) [Example 103NLS69-A, N-{1-[3-(2,6-Dimethylmorpholin-4-yl)propyl]piperidin-4-yl}-N-(4-fluorobenzyl)-2-(4-isobutoxyphenyl)acetamide, dioxalate]	–	–	2	96	–
CCCOc1ccc(CC(=O)N(CCc2ccc(F)cc2)C2CCN(CCCN3C(=O)OC[C@@H]3C(C)C)CC2)cc1 [Example 117NLS03-B, N-[2-(4-Fluorophenyl)ethyl]-N-{1-[3-(4-(S)-isopropyl-2-oxo-oxazolidin-3-yl)propyl]piperidin-4-yl}-2-(4-propoxyphenyl)acetamide, oxalate]	–	–	–	85	IC50 (5HT2A pIC50, Table 5): 3.98 nM
CC(C)COc1ccc(CNC(=O)N(Cc2ccc(F)cc2)C2CCN(CCC3OCCCO3)CC2)cc1 [Example 117NLS25, N-{1-[2-(1,3-Dioxan-2-yl)ethyl]piperidin-4-yl}-N-(4-fluorobenzyl)-N′-(4-isobutoxybenzyl)carbamide, tartrate]	–	–	1.26	94	–
CC[C@H]1COC(=O)N1CCCN1CCC(N(Cc2ccc(F)cc2)C(=O)Cc2ccc(OCC(C)C)cc2)CC1 [Example 118AF16-80, N-(4-Fluorobenzyl)-2-(4-isobutoxyphenyl)-N-{1-[3-((S)-4-ethyl-2-oxo-oxazolidin-3-yl)-propyl]piperidin-4-yl}acetamide, oxalate]	–	–	–	103	IC50 (5HT2A pIC50, Table 5): 0.794 nM
CC(C)COc1ccc(CC(=O)N(Cc2ccc(F)cc2)C2CCN(CCC3OC(C)CC(C)O3)CC2)cc1 (stereo not shown) [Example 118AF37-88, N-{1-[2-(4,6-Dimethyl-1,3-dioxan-2-yl)ethyl]piperidin-4-yl}-N-(4-fluorobenzyl)-2-(4-isobutoxyphenyl)acetamide, oxalate]	–	–	0.631	105	–
O=C(Cc1ccc2occc2c1)N(Cc1ccc(F)cc1)C1CCN(CCC2OCCCO2)CC1 [Example 128NLS22-A, 2-Benzofuran-5-yl-N-{1-[2-(1,3-dioxan-2-yl)ethyl]piperidin-4-yl}-N-(4-fluorobenzyl)acetamide, tartrate]	–	–	3.16	98	–
N-(2-Phenylethyl)-N-(piperidin-4-yl)-4-methoxyphenylmethylacetamide [Example 26HCH80-2]	–	–	–	–	pIC50 (average) (inverse agonist): 7.78; Efficacy (average) (percent maximal repression compared to ritanserin): 89
